Relative viability data for six cell lines are collected here from the supplement of paper PMC10307832.

Assay in all cases: relative viability (nuclei count vs DMSO), 5 days (fraction); higher = more cells survive
Compound in the experiment “Quizartinib + Bortezomib”: CC(C)(C)c1cc(NC(=O)Nc2ccc(-c3cn4c(n3)sc3cc(OCCN5CCOCC5)ccc34)cc2)no1 [Quizartinib] + CC(C)C[C@H](NC(=O)[C@H](Cc1ccccc1)NC(=O)c1cnccn1)B(O)O [Bortezomib] (partner 0.002 µM)
The essentials: (§1)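 Lung cancer cell lines, seeded in 1536-well plates, were treated the following day by pin tool with a single drug or with five library-drug doses (not always all listed) in √10 steps on top of a fixed anchor-drug dose. Cells were fixed and nuclei stained in one step after 5 days, and nuclei were counted. Relative viability is the nuclei count for treated wells divided by that for vehicle wells, reported as medians of duplicate plates.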

Compound in the experiment “Quizartinib + Pictilisib”: CC(C)(C)c1cc(NC(=O)Nc2ccc(-c3cn4c(n3)sc3cc(OCCN5CCOCC5)ccc34)cc2)no1 [Quizartinib] + CS(=O)(=O)N1CCN(Cc2cc3nc(-c4cccc5[nH]ncc45)nc(N4CCOCC4)c3s2)CC1 [Pictilisib] (partner 1 µM)
An outline of the steps: as §1

Compound in the experiment “Quizartinib + Olaparib”: CC(C)(C)c1cc(NC(=O)Nc2ccc(-c3cn4c(n3)sc3cc(OCCN5CCOCC5)ccc34)cc2)no1 [Quizartinib] + O=C(c1cc(Cc2n[nH]c(=O)c3ccccc23)ccc1F)N1CCN(C(=O)C2CC2)CC1 [Olaparib] (partner 8 µM)
The essentials:
as §1

Compound in the experiment “YM155 + Dasatinib”: COCC[n+]1c2c(n(Cc3cnccn3)c1C)C(=O)c1ccccc1C2=O [YM155] + Cc1nc(Nc2ncc(C(=O)Nc3c(C)cccc3Cl)s2)cc(N2CCN(CCO)CC2)n1 [Dasatinib] (partner 0.075 µM)
The essentials:
as §1

With PC-3 [JPC-3], the relative viability with Quizartinib + Bortezomib (first compound 0.001 µM) turned out to be 0.782; with Quizartinib + Bortezomib (first compound 0.003162 µM), 0.822; in the experiment with Quizartinib + Bortezomib (first compound 0.01 µM) it was 0.859; in the experiment with Quizartinib + Bortezomib (first compound 0.03162 µM), 0.791; with Quizartinib + Bortezomib (first compound 0.1 µM), 0.841; with Quizartinib + Pictilisib (first compound 0.001 µM) it was 0.656. Also, the relative viability in the experiment with Quizartinib + Pictilisib (first compound 0.003162 µM) worked out at 0.794; in the experiment with Quizartinib + Pictilisib (first compound 0.01 µM), 0.834; in the experiment with Quizartinib + Pictilisib (first compound 0.03162 µM), 0.733; with Quizartinib + Pictilisib (first compound 0.1 µM), 0.73; with Quizartinib + Olaparib (first compound 0.001 µM), 1.15; in the experiment with Quizartinib + Olaparib (first compound 0.003162 µM), 1.1. Further, the relative viability with Quizartinib + Olaparib (first compound 0.01 µM) was found to be 1.21; with Quizartinib + Olaparib (first compound 0.03162 µM) it was 1.05; with Quizartinib + Olaparib (first compound 0.1 µM), 1.12; with YM155 + Dasatinib (first compound 0.002 µM) it was 0.917; with YM155 + Dasatinib (first compound 0.006325 µM), 1.04; with YM155 + Dasatinib (first compound 0.02 µM) it was 1.02. For the same cell line, in the experiment with YM155 + Dasatinib (first compound 0.06325 µM), the relative viability was 1.01.
For PC-14, the relative viability in the experiment with Quizartinib + Bortezomib (first compound 0.001 µM) amounted to 0.768; with Quizartinib + Bortezomib (first compound 0.003162 µM), 0.846; with Quizartinib + Bortezomib (first compound 0.01 µM), 0.971; with Quizartinib + Bortezomib (first compound 0.03162 µM) it was 0.826; with Quizartinib + Bortezomib (first compound 0.1 µM), 0.644; with Quizartinib + Pictilisib (first compound 0.001 µM), 0.634. Moreover, the relative viability in the experiment with Quizartinib + Pictilisib (first compound 0.003162 µM) was found to be 0.633; with Quizartinib + Pictilisib (first compound 0.01 µM), 0.752; in the experiment with Quizartinib + Pictilisib (first compound 0.03162 µM), 0.576; in the experiment with Quizartinib + Pictilisib (first compound 0.1 µM), 0.681; with Quizartinib + Olaparib (first compound 0.001 µM), 0.263; with Quizartinib + Olaparib (first compound 0.003162 µM) it was 0.26. Moreover, the relative viability with Quizartinib + Olaparib (first compound 0.01 µM) was 0.252; in the experiment with Quizartinib + Olaparib (first compound 0.03162 µM) it was 0.184; in the experiment with Quizartinib + Olaparib (first compound 0.1 µM) it was 0.318; in the experiment with YM155 + Dasatinib (first compound 0.002 µM), 0.231; with YM155 + Dasatinib (first compound 0.006325 µM), 0.26; with YM155 + Dasatinib (first compound 0.02 µM), 0.252. Further, the relative viability with YM155 + Dasatinib (first compound 0.06325 µM) came to 0.114.
For RERF-LC-KJ, the relative viability with Quizartinib + Bortezomib (first compound 0.001 µM) was determined as 1.04; with Quizartinib + Bortezomib (first compound 0.003162 µM), 1.15; in the experiment with Quizartinib + Bortezomib (first compound 0.01 µM), 1.26; with Quizartinib + Bortezomib (first compound 0.03162 µM), 1.1; with Quizartinib + Bortezomib (first compound 0.1 µM), 1.06; in the experiment with Quizartinib + Pictilisib (first compound 0.001 µM) it was 0.468. For the same cell line, the relative viability with Quizartinib + Pictilisib (first compound 0.003162 µM) came to 0.586; in the experiment with Quizartinib + Pictilisib (first compound 0.01 µM), 0.735; with Quizartinib + Pictilisib (first compound 0.03162 µM) it was 0.538; with Quizartinib + Pictilisib (first compound 0.1 µM), 0.515; with Quizartinib + Olaparib (first compound 0.001 µM), 0.931; with Quizartinib + Olaparib (first compound 0.003162 µM) it was 0.807. Moreover, the relative viability amounted to 0.938 with Quizartinib + Olaparib (first compound 0.01 µM); 0.545 with Quizartinib + Olaparib (first compound 0.03162 µM); 0.972 with Quizartinib + Olaparib (first compound 0.1 µM); 0.755 with YM155 + Dasatinib (first compound 0.002 µM); 0.836 in the experiment with YM155 + Dasatinib (first compound 0.006325 µM); 0.851 with YM155 + Dasatinib (first compound 0.02 µM). Further, the relative viability in the experiment with YM155 + Dasatinib (first compound 0.06325 µM) stood at 0.78.
Regarding SK-LU-1, the relative viability amounted to 0.95 in the experiment with Quizartinib + Bortezomib (first compound 0.001 µM); 1.12 with Quizartinib + Bortezomib (first compound 0.003162 µM); 1.24 with Quizartinib + Bortezomib (first compound 0.01 µM); 0.969 with Quizartinib + Bortezomib (first compound 0.03162 µM); 1.2 with Quizartinib + Bortezomib (first compound 0.1 µM); 0.545 with Quizartinib + Pictilisib (first compound 0.001 µM). Further, the relative viability came to 0.547 with Quizartinib + Pictilisib (first compound 0.003162 µM); 0.606 with Quizartinib + Pictilisib (first compound 0.01 µM); 0.491 with Quizartinib + Pictilisib (first compound 0.03162 µM); 0.588 with Quizartinib + Pictilisib (first compound 0.1 µM); 0.462 in the experiment with Quizartinib + Olaparib (first compound 0.001 µM); 0.469 in the experiment with Quizartinib + Olaparib (first compound 0.003162 µM). In addition, the relative viability with Quizartinib + Olaparib (first compound 0.01 µM) came out at 0.458; with Quizartinib + Olaparib (first compound 0.03162 µM) it was 0.467; with Quizartinib + Olaparib (first compound 0.1 µM), 0.432; with YM155 + Dasatinib (first compound 0.002 µM) it was 0.215; in the experiment with YM155 + Dasatinib (first compound 0.006325 µM), 0.175; with YM155 + Dasatinib (first compound 0.02 µM), 0.185. Also, in the experiment with YM155 + Dasatinib (first compound 0.06325 µM), the relative viability was found to be 0.206.
As for SW 1573, the relative viability was 0.71 with Quizartinib + Bortezomib (first compound 0.001 µM); 0.804 with Quizartinib + Bortezomib (first compound 0.003162 µM); 1.24 in the experiment with Quizartinib + Bortezomib (first compound 0.01 µM); 0.684 with Quizartinib + Bortezomib (first compound 0.03162 µM); 1.01 with Quizartinib + Bortezomib (first compound 0.1 µM); 0.474 with Quizartinib + Pictilisib (first compound 0.001 µM). Also, the relative viability worked out at 0.432 in the experiment with Quizartinib + Pictilisib (first compound 0.003162 µM); 0.516 with Quizartinib + Pictilisib (first compound 0.01 µM); 0.325 in the experiment with Quizartinib + Pictilisib (first compound 0.03162 µM); 0.475 with Quizartinib + Pictilisib (first compound 0.1 µM); 0.292 with Quizartinib + Olaparib (first compound 0.001 µM); 0.538 with Quizartinib + Olaparib (first compound 0.003162 µM). Besides, the relative viability was determined as 0.572 with Quizartinib + Olaparib (first compound 0.01 µM); 0.581 in the experiment with Quizartinib + Olaparib (first compound 0.1 µM); 0.446 with YM155 + Dasatinib (first compound 0.002 µM); 0.474 with YM155 + Dasatinib (first compound 0.006325 µM); 0.133 with YM155 + Dasatinib (first compound 0.02 µM); 0.0759 in the experiment with YM155 + Dasatinib (first compound 0.06325 µM).
Turning to UMC-11, the relative viability turned out to be 0.242 with Quizartinib + Bortezomib (first compound 0.001 µM); 0.852 in the experiment with Quizartinib + Bortezomib (first compound 0.003162 µM); 0.875 with Quizartinib + Bortezomib (first compound 0.01 µM); 0.769 in the experiment with Quizartinib + Bortezomib (first compound 0.03162 µM); 0.653 with Quizartinib + Bortezomib (first compound 0.1 µM); 0.522 in the experiment with Quizartinib + Pictilisib (first compound 0.001 µM). Besides, the relative viability is 0.779 in the experiment with Quizartinib + Pictilisib (first compound 0.003162 µM); 0.836 in the experiment with Quizartinib + Pictilisib (first compound 0.01 µM); 0.742 with Quizartinib + Pictilisib (first compound 0.03162 µM); 0.885 with Quizartinib + Pictilisib (first compound 0.1 µM); 0.365 in the experiment with Quizartinib + Olaparib (first compound 0.001 µM); 0.349 with Quizartinib + Olaparib (first compound 0.003162 µM). Further, the relative viability came to 0.464 with Quizartinib + Olaparib (first compound 0.01 µM); 0.315 with Quizartinib + Olaparib (first compound 0.03162 µM); 0.471 with Quizartinib + Olaparib (first compound 0.1 µM); 0.374 in the experiment with YM155 + Dasatinib (first compound 0.002 µM); 0.49 with YM155 + Dasatinib (first compound 0.006325 µM); 0.518 in the experiment with YM155 + Dasatinib (first compound 0.02 µM). Also, the relative viability with YM155 + Dasatinib (first compound 0.06325 µM) is 0.51.
